Residues, ends and D or L forms follow the SMILES beside them. *: point of attachment. NHTrityl = c1ccc(C(N*)(c2ccccc2)c2ccccc2)cc1; Fmoc = O=C(OCC1c2ccccc2-c2ccccc21)*; Boc = CC(C)(C)OC(=O)*; OtBu = CC(C)(C)O*; tBu = CC(C)(C)*
Columns and labels:
[1] = thermal stability of T-20 fragments (water-saturated or dry) at elevated temperatures, purity change by HPLC; format: physicochemical
Experimental: A series of experiments were conducted at to characterize the thermal stability of the intermediate T-20 fragments. T-20 fragments were saturated with water, filtered and then placed in enclosed containers and exposed to elevated temperatures. At several time points samples were collected and analyzed by HPLC methods to access the purity changes. Stability of the dry T-20 fragments was also characterized by thermogravimetric analysis (TGA).

SMILES | stability in 1% TFA/DCM [%/day] | degradation ([1]; after 24 hours at 80 °C) [%] | stability to drying ([1]; drying at 40 °C)
CC(C)C[C@H](NC(=O)[C@H](CCC(=O)OC(C)(C)C)NC(=O)[C@H](CC(C)C)NC(=O)[C@H](CC(C)C)NC(=O)[C@H](CCC(=O)OC(C)(C)C)NC(=O)[C@H](CCC(=O)NC(c1ccccc1)(c1ccccc1)c1ccccc1)NC(=O)[C@H](CCC(=O)OC(C)(C)C)NC(=O)[C@H](CC(=O)NC(c1ccccc1)(c1ccccc1)c1ccccc1)NC(=O)[C@H](CCCCNC(=O)OC(C)(C)C)NC(=O)[C@H](CCC(=O)OC(C)(C)C)NC(=O)OCC1c2ccccc2-c2ccccc21)C(=O)O [F(17-26)-OH] (Fmoc-E(OtBu)K(Boc)D(NHTrityl)E(OtBu)E(NHTrityl)E(OtBu)LLE(OtBu)L-OH) | 1 |  | 
CC(C)C[C@H](NC(=O)[C@H](COC(C)(C)C)NC(=O)[C@H](C)NC(=O)[C@H](Cc1cn(C(=O)OC(C)(C)C)c2ccccc12)NC(=O)[C@H](CCCCNC(=O)OC(C)(C)C)NC(=O)[C@H](CC(=O)OC(C)(C)C)NC(=O)OCC1c2ccccc2-c2ccccc21)C(=O)N[C@@H](Cc1cn(C(=O)OC(C)(C)C)c2ccccc12)C(=O)N[C@@H](CC(=O)NC(c1ccccc1)(c1ccccc1)c1ccccc1)C(=O)N[C@@H](Cc1cn(C(=O)OC(C)(C)C)c2ccccc12)C(=O)N[C@@H](Cc1ccccc1)C(N)=O [F(27-36)-NH2] (Fmoc-D(OtBu)K(Boc)W(Boc)AS(tBu)LW(Boc)D(NHTrityl)W(Boc)F-NH2) |  | 1.4 | stable
